{"source": "ChEMBL document CHEMBL5230084", "about": "“Indole-based derivatives as potential antibacterial activity against methicillin-resistance Staphylococcus aureus (MRSA)” (Eur J Med Chem, 2020)", "key": {"[1]": {"tested_on": "Staphylococcus aureus", "experiment": "Antibacterial activity against methicillin-resistant Staphylococcus aureus", "type": "functional"}, "[2]": {"tested_on": "Staphylococcus aureus", "experiment": "Antibacterial activity against Staphylococcus aureus assessed as inhibition of bacterial growth", "type": "functional"}, "[3]": {"tested_on": "Staphylococcus aureus", "experiment": "Antibacterial activity against methicillin-resistant Staphylococcus aureus 252 assessed as inhibition of bacterial growth", "type": "functional"}, "[4]": {"tested_on": "Staphylococcus aureus", "experiment": "Antibacterial activity against methicillin-resistant Staphylococcus aureus 11 assessed as inhibition of bacterial growth", "type": "functional"}, "[5]": {"tested_on": "Staphylococcus aureus", "experiment": "Antibacterial activity against methicillin-resistant Staphylococcus aureus 4 assessed as inhibition of bacterial growth", "type": "functional"}, "[6]": {"tested_on": "Staphylococcus aureus", "experiment": "Antibacterial activity against methicillin-resistant Staphylococcus aureus 6 assessed as inhibition of bacterial growth", "type": "functional"}, "[7]": {"tested_on": "Staphylococcus aureus", "experiment": "Antibacterial activity against methicillin-resistant Staphylococcus aureus 8 assessed as inhibition of bacterial growth", "type": "functional"}, "[8]": {"tested_on": "Staphylococcus aureus", "experiment": "Antibacterial activity against methicillin-resistant Staphylococcus aureus 3 assessed as inhibition of bacterial growth", "type": "functional"}, "[9]": {"tested_on": "Staphylococcus aureus", "experiment": "Antibacterial activity against methicillin-resistant Staphylococcus aureus 9 assessed as inhibition of bacterial growth", "type": "functional"}, "[10]": {"tested_on": "Staphylococcus aureus", "experiment": "Antibacterial activity against methicillin-resistant Staphylococcus aureus 12 assessed as inhibition of bacterial growth", "type": "functional"}, "[11]": {"tested_on": "Staphylococcus aureus", "experiment": "Antibacterial activity against methicillin-resistant Staphylococcus aureus 4N216 infected in mouse assessed as endurance rate at 20 mg/kg, iv relative to control", "type": "functional"}, "[12]": {"tested_on": "Staphylococcus aureus", "experiment": "Antibacterial activity against Staphylococcus aureus ATCC 25923 assessed as inhibition of bacterial growth by agar well diffusion method", "type": "functional"}, "[13]": {"experiment": "Inhibition of methicillin-resistant Staphylococcus aureus pyruvate kinase"}}}
{"molecule": "N=C(N)N/N=C/c1cn(S(=O)(=O)c2ccccc2)c2ccc(-c3ccc(F)c(Cl)c3)cc12", "values": [{"measurement": "MIC", "setting": "[1]", "result": 3.13, "unit": "µg/mL"}]}
{"molecule": "CCCCn1cc(Br)c2c3c(-c4ccc(OC)cc4)occ3ccc21", "values": [{"measurement": "MIC", "setting": "[1]", "result": 1.4, "unit": "µg/mL"}]}
{"molecule": "N=C(N)N/N=C/c1cn(S(=O)(=O)c2ccccc2)c2ccc(-c3ccc(C(F)(F)F)cc3)cc12", "values": [{"measurement": "MIC", "setting": "[1]", "result": 3.13, "unit": "µg/mL"}]}
{"molecule": "O=C(c1ccc(F)cc1)C1C(c2ccc(Cl)cc2)CNC12C(=O)Nc1ccccc12", "note": "(configuration not stated)", "values": [{"measurement": "MIC", "setting": "[2]", "result": 30, "unit": "µg/mL"}]}
{"molecule": "CC(NC(=O)C(=O)c1c[nH]c2ccc(Br)cc12)c1c[nH]c2ccc(Br)cc12", "note": "(configuration not stated)", "values": [{"measurement": "MIC", "setting": "[3]", "result": 2, "unit": "µg/mL"}]}
{"molecule": "CC(C)(C)n1cc(Br)c2c3c(-c4ccc(Cl)cc4)onc3ccc21", "values": [{"measurement": "MIC", "setting": "[1]", "result": 4.3, "unit": "µg/mL"}]}
{"molecule": "CCn1cc(Br)c2c3c(-c4ccc(OC)cc4)occ3ccc21", "values": [{"measurement": "MIC", "setting": "[1]", "result": 1.4, "unit": "µg/mL"}]}
{"molecule": "Cc1ccc(C(=O)OC[C@H]2O[C@H](n3c(-c4cc5ccccc5[nH]4)c(CC(=O)N(CC(=O)O)Cc4ccccc4)c4ccccc43)CC2OC(=O)c2ccc(C)cc2)cc1", "note": "(some centres not stated)", "values": [{"measurement": "MIC", "setting": "[4]", "result": 13, "unit": "µg/mL"}, {"measurement": "MIC", "setting": "[5]", "result": 13, "unit": "µg/mL"}, {"measurement": "MIC", "setting": "[6]", "result": 13, "unit": "µg/mL"}, {"measurement": "MIC", "setting": "[7]", "result": 13, "unit": "µg/mL"}, {"measurement": "MIC", "setting": "[8]", "result": 13, "unit": "µg/mL"}, {"measurement": "MIC", "setting": "[9]", "result": 13, "unit": "µg/mL"}, {"measurement": "MIC", "setting": "[10]", "result": 13, "unit": "µg/mL"}]}
{"molecule": "Clc1ccc(-n2nc(C3CCNCC3)cc2/C=C/c2c[nH]c3ccc(Cl)cc23)cc1", "values": [{"measurement": "MIC", "setting": "[1]", "result": 1, "unit": "µg/mL"}]}
{"molecule": "Cl.OC(CNCCc1c[nH]c2cc(F)ccc12)Cn1c2ccc(Cl)cc2c2cc(Cl)ccc21", "note": "(configuration not stated)", "values": [{"measurement": "Activity", "setting": "[11]", "result": 75, "unit": "%"}]}
{"molecule": "Fc1cccc(Nc2nnc(Cc3c[nH]c4ccccc34)s2)c1", "values": [{"measurement": "MIC", "setting": "[1]", "result": 25, "unit": "µg/mL"}]}
{"molecule": "Clc1ccc2c(c1)[C@H]1OCO[C@H]1C(c1c[nH]c3ccc(Br)cc13)N2", "note": "(some centres not stated)", "values": [{"measurement": "MIC", "setting": "[1]", "result": 0.31, "unit": "µg/mL"}]}
{"molecule": "COc1ccc(C2C([N+](=O)[O-])C(c3ccccc3)NC23C(=O)Nc2ccccc23)cc1", "note": "(configuration not stated)", "values": [{"measurement": "MIC", "setting": "[12]", "result": 5, "unit": "µg/mL"}]}
{"molecule": "COc1ccc2nc3[nH]c4ccccc4c3c(-c3c[nH]c4ccccc34)c2c1", "values": [{"measurement": "MIC", "setting": "[1]", "result": 4, "unit": "µg/mL"}]}
{"molecule": "Fc1ccc(Nc2nnc(Cc3c[nH]c4ccccc34)s2)c(F)c1", "values": [{"measurement": "MIC", "setting": "[1]", "result": 50, "unit": "µg/mL"}]}
{"molecule": "CCOC(=O)CN(CCc1c(I)n([C@@H]2CC(OC(=O)c3ccc(C)cc3)[C@@H](COC(=O)c3ccc(C)cc3)O2)c2ccccc12)Cc1ccccc1", "note": "(some centres not stated)", "values": [{"measurement": "MIC", "setting": "[4]", "result": 6, "unit": "µg/mL"}, {"measurement": "MIC", "setting": "[5]", "result": 6, "unit": "µg/mL"}, {"measurement": "MIC", "setting": "[6]", "result": 6, "unit": "µg/mL"}, {"measurement": "MIC", "setting": "[7]", "result": 6, "unit": "µg/mL"}, {"measurement": "MIC", "setting": "[8]", "result": 6, "unit": "µg/mL"}, {"measurement": "MIC", "setting": "[9]", "result": 6, "unit": "µg/mL"}, {"measurement": "MIC", "setting": "[10]", "result": 6, "unit": "µg/mL"}]}
{"molecule": "N=C(N)N/N=C/c1cn(S(=O)(=O)c2ccccc2)c2ccc(-c3cccc(OC(F)(F)F)c3)cc12", "values": [{"measurement": "MIC", "setting": "[1]", "result": 3.13, "unit": "µg/mL"}]}
{"molecule": "c1ccc(Nc2nnc(Cc3c[nH]c4ccccc34)s2)cc1", "values": [{"measurement": "MIC", "setting": "[1]", "result": 25, "unit": "µg/mL"}]}
{"molecule": "Clc1ccc(Nc2nnc(Cc3c[nH]c4ccccc34)s2)c(Cl)c1", "values": [{"measurement": "MIC", "setting": "[1]", "result": 25, "unit": "µg/mL"}]}
{"molecule": "CC(C)(C)OC(=O)NCC(NC(=O)c1c[nH]c2ccc(Br)cc12)c1c[nH]c2ccc(Br)cc12", "note": "(configuration not stated)", "values": [{"measurement": "MIC", "setting": "[3]", "result": 2, "unit": "µg/mL"}]}
{"molecule": "COc1ccc(-c2occ3ccc4c(c(Br)cn4C(C)(C)C)c23)cc1", "values": [{"measurement": "MIC", "setting": "[1]", "result": 1.4, "unit": "µg/mL"}]}
{"molecule": "Clc1ccc2nc(-c3c[nH]c4ccc(Br)cc34)ccc2c1", "values": [{"measurement": "MIC", "setting": "[1]", "result": 0.62, "unit": "µg/mL"}]}
{"molecule": "Fc1ccc2[nH]cc(-c3ccc4cc(Cl)ccc4n3)c2c1", "values": [{"measurement": "MIC", "setting": "[1]", "result": 0.62, "unit": "µg/mL"}]}
{"molecule": "Fc1ccc2c(-c3ccc4cc(Cl)ccc4n3)c[nH]c2c1", "values": [{"measurement": "MIC", "setting": "[1]", "result": 0.62, "unit": "µg/mL"}]}
{"molecule": "CC1=C(C(=O)O)N2C(=O)[C@@H](NC(=O)[C@H](N)c3ccccc3)[C@H]2SC1", "note": "[CEPHALEXIN ANHYDROUS]", "values": [{"measurement": "MIC", "setting": "[1]", "result": 72, "unit": "µg/mL"}]}
{"molecule": "O=C(O)c1cn(C2CC2)c2cc(N3CCNCC3)c(F)cc2c1=O", "note": "[CIPROFLOXACIN]", "values": [{"measurement": "MIC", "setting": "[2]", "result": 20, "unit": "µg/mL"}, {"measurement": "MIC", "setting": "[12]", "result": 0.3, "unit": "µg/mL"}]}
{"molecule": "CC[C@H]1OC(=O)[C@H](C)[C@@H](O[C@H]2C[C@@](C)(OC)[C@@H](O)[C@H](C)O2)[C@H](C)[C@@H](O[C@@H]2O[C@H](C)C[C@H](N(C)C)[C@H]2O)[C@](C)(O)C[C@@H](C)C(=O)[C@H](C)[C@@H](O)[C@]1(C)O", "note": "[ERYTHROMYCIN]", "values": [{"measurement": "MIC", "setting": "[1]", "result": 32, "unit": "µg/mL"}]}
{"molecule": "O=C(C1=NC(c2c[nH]c3cc(Br)ccc23)CN1)c1c[nH]c2ccccc12", "note": "(configuration not stated) [SPONGOTINE A]", "values": [{"measurement": "IC50", "setting": "[13]", "result": 16, "unit": "nM"}]}
{"molecule": "CC1(C)S[C@@H]2[C@H](NC(=O)[C@H](N)c3ccccc3)C(=O)N2[C@H]1C(=O)OCOC(=O)[C@@H]1N2C(=O)C[C@H]2S(=O)(=O)C1(C)C", "note": "[SULTAMICILLIN]", "values": [{"measurement": "MIC", "setting": "[1]", "result": 25, "unit": "µg/mL"}]}
